What is called inhibition is how much of the control response was suppressed. As usually defined, the IC50 is the midpoint of a concentration-inhibition curve.

The assay has as its target human Kv1.3 (hKv1.3) channels (Homo sapiens (Human), UniProt P22001). The assay can be described thus: Electrophysiological (whole-cell patch clamp) determination of inhibitory activity on Kv1.3 channels. The format is cell-based. Particulars: HEK293T cells expressing hKv1.3; for inhibition at 0.01 µM: HEK-293T, read-out: 10 nM inhibition rate (Kv1.3); for IC50: Hill fit of peak current inhibition. The procedure:
Test Example 1: Determination of Inhibitory Activity of Compounds on Kv1.3 (hKv1.3) Channels
Electrophysiological Testing
Potassium currents were measured using HEK293T cells expressing human Kv1.3 (hKv1.3) channels.
Prior to the start of electrophysiological experiments, Kv1.3 cell lines should be maintained within 70% of the maximum density in the logarithmic growth phase. All reagents should be pre-warmed to 37° C. before use. • 1) Aspirate the spent medium from the 6 cm culture dish. • 2) Add 1 mL of PBS, gently rock the dish to rinse the bottom, and then remove the PBS. • 3) Add 1 mL of trypsin, and gently rock the dish to ensure the trypsin covers all the cells. • 4) Incubate at 37° C. for 2-3 minutes, and then gently pipette the cells to suspend the adherent cells. • 5) Transfer the cell suspension to a new centrifuge tube and centrifuge at 1000 rpm for 5 minutes. Adjust the cell concentration to 2×10^3 cells/mL, and then seed 300 μL of the cell suspension into each well of a 24-well plate containing cell climbing slides. Perform patch clamp experiments after the cells adhered properly.
The intracellular and extracellular solutions used were designed to mimic the cell physiological ionic composition.
Kv1.3 extracellular solution: 137 mM NaCl, 1 mM MgCl2·6H2O, 4 mM KCl, 1.8 mM CaCl2·2H2O, 10 mM D-Glucose, 10 mM HEPES, pH adjusted to 7.4 with NaOH.
Kv1.3 intracellular solution: 140 mM KCl, 10 mM EGTA, 5 mM MgCl2·6H2O, 10 mM HEPES, […], pH adjusted to 7.2 with KOH.
Test Compound Dissolution
• 1) The test compound was dissolved in DMSO to prepare a 30 mM stock solution. • 2) The stock solution of the test compound was serially diluted with DMSO to obtain secondary stock solutions at concentrations of 300 μM, 100 μM, 30 μM, 10 μM, and 3 μM. • 3) 10 μL of each secondary stock solution was diluted into 10 mL of extracellular solution to achieve final concentrations of 300 nM, 100 nM, 30 nM, 10 nM, and 3 nM for electrophysiological testing.
Kv1.3 potassium current data were collected and stored on a computer using Patchmaster software via an EPC-10 amplifier. • 1) The cell climbing slide was removed from the cell culture dish using forceps, immersed with extracellular solution, and placed into the bath chamber on the stage of an inverted microscope. • 2) Glass micropipettes were pulled using a P-1000 micropipette puller, filled one-third of their volume with intracellular solution, and then mounted onto an electrode holder. • 3) Using a motorized micromanipulator (Scientifica-Double 1U), the recording electrode was brought into contact with the cell surface. […] The positive pressure was removed, and a negative pressure of 0.5 cm H2O was applied. It was observed that the sealing resistance increased rapidly until it reached the gigaseal. When the sealing resistance between the recording electrode and the cell membrane was >1 GΩ, negative pressure was applied to rupture the membrane to form the whole-cell recording mode. After the ruptured membrane stabilized, the membrane capacitance (Cs) and series resistance (Rs) were compensated. • 4) Stimulation procedure: the cell was voltage-clamped at −80 mV, depolarized to 40 mV for a duration of 200 ms, and then repolarized to −80 mV. Currents were recorded every 10 s. • 5) Kv1.3 potassium channel currents were recorded at room temperature prior to drug application. After the control current value reached a steady state (indicated by overlapping of the four most consecutive current traces), cumulative drug application was performed. The negative control (0.1% DMSO) was applied first, followed by […] of the drugs.
Raw Kv1.3 current peak data were extracted from PatchMaster software. The current inhibition rate was calculated as follows: Peak current inhibition rate=((1−(Peak current compound)/(Peak current vehicle))). […]
(Patch clamp records ionic current or voltage across a cell membrane.)

Setting [1] is: compound concentration 10 nM, peak current inhibition.

human Kv1.3 (hKv1.3) channels, sequence (P22001 whole entry): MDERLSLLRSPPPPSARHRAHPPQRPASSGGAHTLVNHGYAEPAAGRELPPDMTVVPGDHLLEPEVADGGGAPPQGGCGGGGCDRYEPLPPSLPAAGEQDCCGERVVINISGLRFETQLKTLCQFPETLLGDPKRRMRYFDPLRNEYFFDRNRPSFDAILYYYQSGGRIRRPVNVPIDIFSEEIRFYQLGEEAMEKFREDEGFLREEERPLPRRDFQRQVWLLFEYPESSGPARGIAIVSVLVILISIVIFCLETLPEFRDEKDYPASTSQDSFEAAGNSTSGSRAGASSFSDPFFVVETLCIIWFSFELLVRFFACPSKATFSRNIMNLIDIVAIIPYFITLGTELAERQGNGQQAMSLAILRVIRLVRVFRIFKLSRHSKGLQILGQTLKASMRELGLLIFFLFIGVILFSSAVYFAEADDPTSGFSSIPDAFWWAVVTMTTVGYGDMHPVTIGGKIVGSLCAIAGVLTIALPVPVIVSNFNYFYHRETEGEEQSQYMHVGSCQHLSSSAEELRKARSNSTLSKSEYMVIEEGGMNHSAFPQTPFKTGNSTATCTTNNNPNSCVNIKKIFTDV

Regarding `C=Cn1cc(N2CC(c3c(O)ccc(Cl)c3Cl)CC2=O)cn1` (centres unmarked) [Compound 90, 4-(2,3-Dichloro-6-hydroxyphenyl)-1-(1-vinyl-1H-pyrazol-4-yl)pyrrolidin-2-one], under setting [1], the inhibition at 0.01 µM lay within 50 to 75%.
In turn, `OC[C@@H](O)CN1CC(c2c(O)ccc(Cl)c2Cl)CC1=S` (mixture of isomers) [Compound 131, rac-4-(2,3-dichloro-6-hydroxyphenyl)-1-((S)-2,3-dihydroxypropyl)pyrrolidine-2-thione] displayed an IC50 of 30 to 100 nM. The inhibition at 0.01 µM under setting [1] was 50 to 75%.
For `Oc1ccc(Cl)c(Cl)c1C1CC(=S)N(c2cnn(C3COC3)c2)C1` (racemic) [Compound 164, rac-4-(2,3-dichloro-6-hydroxyphenyl)-1-(1-(oxetan-3-yl)-1H-pyrazol-4-yl)pyrrolidine-2-thione], the inhibition at 0.01 µM under setting [1] lay in the range of 50 to 75%.
Consider `N=C(N)CCN1CC(c2c(O)ccc(Cl)c2Cl)CC1=O` (centres unmarked) [Compound 114, 3-(4-(2,3-Dichloro-6-hydroxyphenyl)-2-oxopyrrolidin-1-yl)propionimide], for which the inhibition at 0.01 µM under setting [1] is 0 to 5%.
On the same count and under the same terms, to `Oc1ccc(Cl)c(Cl)c1C1CC(=S)N(c2cnn3c2OCC3)C1` (racemic) [Compound 161, rac-4-(2,3-dichloro-6-hydroxyphenyl)-1-(2,3-dihydropyrazolo[5,1-b]oxazol-7-yl)pyrrolidine-2-thione] belongs 50 to 75%; to `Oc1ccc(Cl)c(Cl)c1C1CC(=S)N(C[C@H]2C[C@H](O)C2)C1` (mixture of isomers) [Compound 129, rac-4-(2,3-dichloro-6-hydroxyphenyl)-1-(((1r,3r)-3-hydroxycyclobutyl)methyl)pyrrolidine-2-thione], 0 to 5%.
On the same count and under the same terms, the figure for `OC[C@H]1C[C@@H](N2CC(c3c(O)ccc(Cl)c3Cl)CC2=S)C1` (mixture of isomers) [Compound 127, rac-4-(2,3-dichloro-6-hydroxyphenyl)-1-((1s,3s)-3-(hydroxymethyl)cyclobutyl)pyrrolidine-2-thione] is 0 to 5%; for `CONC(=O)CCN1CC(c2c(O)ccc(Cl)c2Cl)CC1=O` (centres unmarked) [Compound 117, 3-(4-(2,3-Dichloro-6-hydroxyphenyl)-2-oxopyrrolidin-1-yl)-N-methoxypropionamide] it is 0 to 5%; for `OCCCN1CC(c2c(O)ccc(F)c2Cl)CC1=S` (racemic) [Compound 148, rac-4-(2-chloro-3-fluoro-6-hydroxyphenyl)-1-(3-hydroxypropyl)pyrrolidine-2-thione] it is 0 to 5%.
Regarding `C=Cn1cc(N2CC(c3c(O)ccc(Cl)c3Cl)CC2=S)cn1` (racemic) [Compound 66, rac-4-(2,3-dichloro-6-hydroxyphenyl)-1-(1-vinyl-1H-pyrazol-4-yl)pyrrolidine-2-thione], under setting [1], the inhibition at 0.01 µM was in the range of 25 to 50%.
With `Oc1ccc(Cl)c(Cl)c1C1CC(=S)N(C2CC3(CNC3)C2)C1` (racemic) [Compound 34, rac-4-(2,3-Dichloro-6-hydroxyphenyl)-1-(2-azaspiro[3.3]heptan-6-yl)pyrrolidine-2-thione], the inhibition at 0.01 µM under setting [1] fell in the range of 25 to 50%.
Turning to “4-(2,3-Dichloro-6-hydroxyphenyl)-1-(2,2-difluoro-3-hydroxypropyl)pyrrolidine-2-thione [Compound 121]”, under setting [1], the “10 nM inhibition rate (Kv1.3)” value is recorded as “A (A = inhibition ≥75%)”.
As to `O=C1CC(c2c(O)ccc(Cl)c2Cl)CN1CCCNO` (racemic) [Compound 103, 4-(2,3-Dichloro-6-hydroxyphenyl)-1-(3-(hydroxyamino)propyl)pyrrolidin-2-one], the inhibition at 0.01 µM under setting [1] was at least 75%.
`OCCCN1C[C@H](c2c(O)ccc(Cl)c2Cl)CC1=S` [Compound 1-1, (S)-4-(2,3-Dichloro-6-hydroxyphenyl)-1-(3-hydroxypropyl)pyrrolidine-2-thione] registered an IC50 of 5 to 10 nM.
Compound `OCC(F)(F)CN1C[C@H](c2c(O)ccc(Cl)c2Cl)CC1=S` [Compound 121-1, (S)-4-(2,3-Dichloro-6-hydroxyphenyl)-1-(2,2-difluoro-3-hydroxypropyl)pyrrolidine-2-thione] had an IC50 of 10 to 30 nM.
In the case of `CS(=O)(=O)n1cc(N2CC(c3c(O)ccc(Cl)c3Cl)CC2=S)cn1` (racemic) [Compound 68, rac-4-(2,3-dichloro-6-hydroxyphenyl)-1-(1-(methylsulfonyl)-1H-pyrazol-4-yl)pyrrolidine-2-thione], the inhibition at 0.01 µM under setting [1] was in the range of 25 to 50%.
In the case of `OCC1(CN2CC(c3c(O)ccc(Cl)c3Cl)CC2=S)CC1` (racemic) [Compound 125, rac-4-(2,3-Dichloro-6-hydroxyphenyl)-1-((1-(hydroxymethyl)cyclopropyl)methyl)pyrrolidine-2-thione], the inhibition at 0.01 µM under setting [1] was 0 to 5%.
In the case of `O=C(CCN1CC(c2c(O)ccc(Cl)c2Cl)CC1=O)NO` (centres unmarked) [Compound 115, 3-(4-(2,3-Dichloro-6-hydroxyphenyl)-2-oxopyrrolidin-1-yl)-N-hydroxypropionamide], the inhibition at 0.01 µM under setting [1] is 25 to 50%.
Regarding “(S)-4-(2,3-Dichloro-6-hydroxyphenyl)-1-(1- methyl-1H-pyrazol-4-yl)pyrrolidine-2- thione [Compound 40-1]”, the half-inhibitory concentration (IC50) was at most 5 nM.
As for `COc1cc(N2CC(c3c(O)ccc(Cl)c3Cl)CC2=S)ccn1` (racemic) [Compound 166, rac-4-(2,3-dichloro-6-hydroxyphenyl)-1-(2-methoxypyridin-4-yl)pyrrolidine-2-thione], the inhibition at 0.01 µM under setting [1] lay within 0 to 5%.
Turning to `Oc1ccc(Cl)c(Cl)c1C1CC(=S)N(c2cnn(C3CC3)c2)C1` (racemic) [Compound 150, rac-1-(1-cyclopropyl-1H-pyrazol-4-yl)-4-(2,3-dichloro-6-hydroxyphenyl)pyrrolidine-2-thione], the inhibition at 0.01 µM under setting [1] was in the range of 50 to 75%.
`O=C1CC(c2c(O)ccc(Cl)c2Cl)CN1CCNO` (centres unmarked) [Compound 118, 4-(2,3-Dichloro-6-hydroxyphenyl)-1-(2-(hydroxyamino)ethyl)pyrrolidin-2-one]: the inhibition at 0.01 µM under setting [1] is 25 to 50%.
For `Cn1cc(N2CC(c3c(O)ccc(Cl)c3Cl)CC2=S)cn1` (racemic) [Compound 40, 4-(2,3-dichloro-6-hydroxyphenyl)-1-(1-methyl-1H-pyrazol-4-yl)pyrrolidine-2-thione], the inhibition at 0.01 µM under setting [1] lay in the range of 50 to 75%.
`O=C1CC(c2c(O)ccc(Cl)c2Cl)CN1C1CC2(CNC2)C1` (centres unmarked) [Compound 100, 4-(2,3-Dichloro-6-hydroxyphenyl)-1-(2-azaspiro[3.3]heptan-6-yl)pyrrolidin-2-one]: the inhibition at 0.01 µM under setting [1] was at least 75%.
On the same count and under the same terms, the figure for `CN(O)C(=O)CCN1CC(c2c(O)ccc(Cl)c2Cl)CC1=O` (centres unmarked) [Compound 116, 3-(4-(2,3-Dichloro-6-hydroxyphenyl)-2-oxopyrrolidin-1-yl)-N-hydroxy-N-methylpropionamide] is below 0%.
Consider `Oc1ccc(Cl)c(Cl)c1C1CC(=S)N(C[C@H]2C[C@@H](O)C2)C1` (mixture of isomers) [Compound 128, rac-4-(2,3-dichloro-6-hydroxyphenyl)-1-(((1s,3s)-3-hydroxycyclobutyl)methyl)pyrrolidine-2-thione], for which the inhibition at 0.01 µM under setting [1] lay within 0 to 5%.
Take `NC1CC2(C1)CC(N1CC(c3c(O)ccc(Cl)c3Cl)CC1=O)C2` (centres unmarked) [Compound 101, 1-(6-Aminospiro[3.3]heptan-2-yl)-4-(2,3-dichloro-6-hydroxyphenyl) pyrrolidin-2-one]: the inhibition at 0.01 µM under setting [1] lay within 50 to 75%.
Still for that read-out and setting: the figure for `OCCCCN1CC(c2c(O)ccc(Cl)c2Cl)CC1=S` (racemic) [Compound 130, rac-4-(2,3-dichloro-6-hydroxyphenyl)-1-(4-hydroxybutyl)pyrrolidine-2-thione] is 25 to 50%.

The record behind these values is patent US20260042734A1, “HETEROCYCLIC RING-SUBSTITUTED AROMATIC COMPOUND, PREPARATION METHOD THEREFOR, AND USE THEREOF” (SHANGHAI HENLIUS BIOTECH, INC., priority 2023, published 2026).
